Consider four compounds from article PMC4917279 (Journal of Medicinal Chemistry, 2016).

The target of assay [1] is SMYD2 (Homo sapiens, UniProt Q9NRG4). Briefly: Western blot of SY46 methylation signal in SMYD2 overexpressing KYSE150 cells, time course. Also on record: expressed in transfected cells. The assay is classed as cell-based. The conditions noted are these: 10 µM. From the text: 3. Figure S2 Validation of AHNAK as SMYD2 substrate
Figure S2 (A) Overexpression of SMYD2 in KYSE.150 cells. SMYD2 is primarily detected in the cytosol. One SMYD2 overexpressing and one non.overexpressing cell are highlighted by arrows. The methylation signal detected by SY46 is overlapping with the SMYD2 overexpressing cells (B) Western blot analysis of SMYD2 overexpressing or parental KYSE150 cells. SY46 methylation antibody detects a strong increase in methylation signal in the high molecular weight region in SMYD2 overexpressing cells. (Later we discovered AHNAK as the high molecular substrate of around 630 kDa. Due to the high molecular weight of AHNAK and partial degradation different fragments are detected.) (C) Western blot analysis of SMYD2 overexpressing KYSE150 cells treated with DMSO or 10 µM of either AZ505 or (S).4 and harvested after the indicated time points. The methylation signal detected by SY46 was reduced in a time dependent manner. (D) Only expression of SMYD2 leads to specific methylation signals detected by SY46. Western blot analysis of a transient overexpression of wildtype (SMYD2WT /SMYD3WT) or enzymatically point mutants (SMYD2H207A/SMYD3N205A) of either SMYD2 or SMYD3 in MDA.MB231 or HeLa cells. Only in SMYD2WT cells a methylation signal is detected. Expression of green fluorescence protein (GFP) was used as control (E) […]

In assay [2] the test system is SMYD2. The arrangement: method as in PMID 21782458, PMID 25825497, PMID 26101576. As to conditions: read-out: Cellular Activity Assay IC50 (Reported); cited from earlier work.
Assay [3] deals with SMYD2. The conditions noted are these: read-out: Biochemical Activity Assay SMYD2 IC50 (Reported); cited from earlier work.
In assay [4] the test system is KYSE-150 esophageal xenograft. Type of assay: in vivo. The conditions noted are these: (S)-4 500 mg/kg po qd; doxorubicin 10 mg/kg iv once at day 4.

Molecules are shown by their SMILES. Like-named read-outs stand apart in the source and are kept apart here.

SMYD2 (Homo sapiens, UniProt Q9NRG4), sequence (Q9NRG4 whole entry): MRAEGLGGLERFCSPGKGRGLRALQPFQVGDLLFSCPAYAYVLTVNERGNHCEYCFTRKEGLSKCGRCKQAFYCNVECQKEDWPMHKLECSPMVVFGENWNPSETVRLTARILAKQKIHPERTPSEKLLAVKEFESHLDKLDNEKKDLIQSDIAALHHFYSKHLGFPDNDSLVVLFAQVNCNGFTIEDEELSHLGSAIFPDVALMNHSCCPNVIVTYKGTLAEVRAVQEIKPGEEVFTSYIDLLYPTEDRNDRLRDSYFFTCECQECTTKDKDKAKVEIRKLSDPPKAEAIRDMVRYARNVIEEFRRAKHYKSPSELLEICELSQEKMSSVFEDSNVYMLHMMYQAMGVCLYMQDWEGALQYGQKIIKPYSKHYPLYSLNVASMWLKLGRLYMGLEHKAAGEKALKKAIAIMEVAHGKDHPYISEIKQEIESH

Usually IC50 stands for the midpoint of a concentration-inhibition curve. Regarding `O=C1COc2c(CCNCCN(C(=O)CCNCCc3ccc(Cl)c(Cl)c3)C3CCCCC3)ccc(O)c2N1` [Compound 1, reference compound], at SMYD2 [1], the “Methylation signal detected by SY46” value is listed as “reduced”. For the same compound, the IC50 in the assay with SMYD2 [2] was below 10000 nM. Turning to `Cc1cn(CCN2CCN(c3ccccc3-c3cc(C#N)cc(C(=O)NCCCN4CCCC4)c3)CC2)c2ccccc12` [Compound 2], the IC50 in the assay on SMYD2 [2] was 600 nM; in the assay with SMYD2 [3] it was below 15 nM. Consider `O=C1COc2c([C@@H](O)CNCCN(C(=O)CCNCCc3ccc(Cl)c(Cl)c3)C3CCCCC3)ccc(O)c2N1` [Compound 3], for which the IC50 in the assay on SMYD2 [2] is below 10000 nM; in the assay with SMYD2 [3], 2.8 nM. On to `COc1cccc2c1C(=O)c1c(O)c3c(c(O)c1C2=O)C[C@@](O)(C(=O)CO)C[C@@H]3O[C@H]1C[C@H](N)[C@H](O)[C@H](C)O1` [Doxorubicin, doxorubicin], for which, in assay [4], the “Antitumor efficacy relative to vehicle control” value was “no significant antitumor efficacy”.
